From patent US5153308A, “S-sulfonated calcitonin derivatives” (Teijin Limited, priority 1988, dated 1992)
*1 amine or outer side, *2 acyl side, *3 side chain or, on linkers, in order; H or OH if unused. Where a SMILES comes first, the peptide text is derived from it. [ ]: non-standard residue; d: D form. X1 = O=C([C@H](CSS(=O)(=O)O)N[*:1])[*:2]

Tests used:
[1] = Stability test in liquid form (residual amount by reverse HPLC); type: physicochemical; conditions: 37° C., 2 weeks, compared to native salmon calcitonin-I
Protocol: First, 50 μg each of the diS-sulfonated salmon calcitonin-I and salmon calcitonin-I were separately dissolved in 100 μl of 50 mM Tris-Hcl buffer solution (pH 7.2), and the solutions were stored at 37° C. After 2 weeks, the residual diS-sulfonated salmon calcitonin-I and salmon calcitonin-I were measured by reverse HPLC.

[2] = Stability test in frozen state (residual amount by reverse HPLC); type: physicochemical; conditions: -80° C., 5 months, compared to native calcitonin-I
Protocol: First, 50 μg each of the diS-sulfonated salmon calcitonin-I and salmon calcitonin-I were separately dissolved in 100 μl of 2.5 mM citrate (pH 2.8) buffer, and the solutions were frozen and stored at -80° C. After 5 months, the frozen samples were thawed, and residual diS-sulfonated salmon calcitonin-I and salmon calcitonin-I were measured by reverse HPLC.

Stability in a solution (in words) [1]: remarkably stable | Stability in the frozen state (in words) [2]: remarkably stable
Structure (SMILES): CC(C)C[C@H](NC(=O)[C@H](CCCCN)NC(=O)CNC(=O)[C@H](CC(C)C)NC(=O)[C@@H](NC(=O)[C@H](CSS(=O)(=O)O)NC(=O)[C@@H](NC(=O)[C@H](CO)NC(=O)[C@H](CC(C)C)NC(=O)[C@H](CC(N)=O)NC(=O)[C@H](CO)NC(=O)[C@@H](N)CSS(=O)(=O)O)[C@@H](C)O)C(C)C)C(=O)N[C@@H](CO)C(=O)N[C@@H](CCC(N)=O)C(=O)N[C@@H](CCC(=O)O)C(=O)N[C@@H](CC(C)C)C(=O)N[C@@H](Cc1c[nH]cn1)C(=O)N[C@@H](CCCCN)C(=O)N[C@@H](CC(C)C)C(=O)N[C@@H](CCC(N)=O)C(=O)N[C@H](C(=O)N[C@@H](Cc1ccc(O)cc1)C(=O)N1CCC[C@H]1C(=O)N[C@@H](CCCNC(=N)N)C(=O)N[C@H](C(=O)N[C@@H](CC(N)=O)C(=O)N[C@H](C(=O)NCC(=O)N[C@@H](CO)C(=O)NCC(=O)N[C@H](C(=O)N1CCC[C@H]1C(N)=O)[C@@H](C)O)[C@@H](C)O)[C@@H](C)O)[C@@H](C)O [diS-sulfonated salmon calcitonin-I] (H-[X1]SNLST[X1]VLGKLSQELHKLQTYPRTNTGSGTP-NH2)
